These results are taken from patent publication US10189826B2, “Heterocyclic compounds and methods of use” (Medivation Technologies LLC, priority 2015, dated 2019).

What all share (type): cell-based
Series [1] deals with SREBP-2 transcriptional activity (SREBP2 cleavage) in HepG2_LSSprom cells. The series is described as follows: Luciferase reporter driven by a SREBP-2 specific promoter in HepG2_LSSprom cells. Conditions: for IC50: read-out: SREBP2 Cleavage (IC50 μM) 24 h; for SREBP2 Cleavage (5 μM) (% Inh): medium without FBS. Summed up: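 HepG2_LSSprom cells dosed at 0.625-10 μM in serum-free medium for 6 h (or 24 h), then luciferase luminescence read. Signal normalized to vehicle (100%); IC50 by four-parameter nonlinear fit; five independent experiments, triplicate wells.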
(A reporter such as luciferase makes a cellular process visible.)

Series [2] concerns HepG2_LSSprom cells. The series is described as follows: Cytotoxicity assay (LDH release) in HepG2_LSSprom cells. The settings on record: for Cytotoxicity (5 μM) %: LDH release relative to lysis control. The gist of the method:
(§1)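 HepG2_LSSprom cells exposed to compound at 0.625–10 μM in serum-free medium for 6 h or 24 h. Medium LDH measured colorimetrically at 490 nm; release expressed as % of lysis control after vehicle subtraction, negatives set to 0; five independent experiments, triplicate wells, mean±SEM.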

Test in series [3]: as above
Conditions: human, HepG2 LSSprom cells, 24 h treatment, LDH release. Summed up: as §1
On the technique in general: LDH in the medium is a marker of cell lysis.

Setting [4] is: 24 h, 24 h treatment, HepG2_LSSprom cells.

Structures can show the parent of a compound that is named as a salt. Where two headings read alike, the source gives them in different places.

As for `CC1(N)CCCN(C(=O)c2ccc(-c3cc(-c4ccnc(C(C)(C)C)c4)cs3)c(Cl)c2)C1` (single isomer, unassigned) [Compound 95b], the IC50 in series [1] (24 h treatment, HepG2_LSSprom cells) was 0.65 µM; in series [2] (24 h treatment, LDH release) it was over 10 µM.

With `O=C(c1ccc(-c2csc(-c3cccc4[nH]ccc34)n2)c(Cl)c1)N1CCCCC1` [Compound 4, [3-chloro-4-[2-(1H-indol-4-yl)thiazol-4-yl]phenyl]-(1-piperidyl)methanone], the “SREBP2 Cleavage (5 μM) (% Inh)” value in series [1] (HepG2_LSSprom cells) came out at 48 % Inh. The “Cytotoxicity (5 μM) %” value in series [2] is 1%.

`CC(C)(C)c1cc(-c2nc(-c3ccc(C(=O)N4CCCCC4)cc3Cl)cs2)ccn1` [Compound 5, 2-tert-butyl-4-{4-[2-chloro-4-(piperidine-1-carbonyl)phenyl]-1,3-thiazol-2-yl}pyridine]: in series [1] (HepG2_LSSprom cells), the “SREBP2 Cleavage (5 μM) (% Inh)” value was determined as 71 % Inh. The “Cytotoxicity (5 μM) %” value in series [2] is on record as 4%.

As for `CC(C)(C)c1cc(-c2csc(-c3ccc(C(=O)N4CCCC(O)C4)cc3Cl)c2)ccn1` (stereo not shown) [Compound 89, 1-{4-[4-(2-tert-butylpyridin-4-yl)thiophen-2-yl]-3-chlorobenzoyl}piperidin-3-ol], in series [1] (setting [4]), the IC50 amounted to 0.037 µM. In addition, the IC50 at 24 h in series [3] is over 10 µM.

Turning to `CC(C)(C)c1cc(-c2csc(-c3ccc(C(=O)N4CCC[C@@H](O)C4)cc3Cl)c2)ccn1` [Compound 89a, (R)-(4-(4-(2-(tert-butyl)pyridin-4-yl)thiophen-2-yl)-3-chlorophenyl)(3-hydroxypiperidin-1-yl)methanone], the IC50 in series [1] (setting [4]) stood at 0.03 µM. The IC50 at 24 h in series [3] is over 10 µM.

As to `CC(C)(C)c1cc(-c2csc(-c3ccc(C(=O)N4CCC[C@H](O)C4)cc3Cl)c2)ccn1` [Compound 89b, (S)-(4-(4-(2-(tert-butyl)pyridin-4-yl)thiophen-2-yl)-3-chlorophenyl)(3-hydroxypiperidin-1-yl)methanone], in series [1] (setting [4]), the IC50 worked out at 0.02 µM. In series [3], the IC50 at 24 h was over 10 µM.

In the case of `CC(C)(C)OC(=O)NC1CCN(C(=O)c2ccc(-c3csc(-c4ccnc(C(C)(C)C)c4)c3)c(Cl)c2)C1` (stereo not shown) [Compound 90], the IC50 in series [1] (setting [4]) was 0.37 µM. Besides, the half-inhibitory concentration (IC50) at 24 h in series [3] is over 10 µM.

With `CC(C)(C)c1cc(-c2csc(-c3ccc(C(=O)N4CCCC(C(=O)O)C4)cc3Cl)c2)ccn1` (stereo not shown) [Compound 91], the IC50 in series [1] (setting [4]) came out at 0.72 µM. Also, the IC50 at 24 h in series [3] was over 10 µM.

`CC(C)(C)c1cc(-c2csc(-c3ccc(C(=O)N4CCc5nc[nH]c5C4)cc3Cl)c2)ccn1` [Compound 92, 2-tert-butyl-4-[5-(2-chloro-4-{3H,4H,5H,6H,7H-imidazo[4,5-c]pyridine-5-carbonyl}phenyl)thiophen-3-yl]pyridine]: the IC50 in series [1] (setting [4]) stood at 0.74 µM. Moreover, the 50% inhibitory concentration (IC50) at 24 h in series [3] was over 10 µM.

On to `CC(C)(C)c1cc(-c2csc(-c3ccc(C(=O)N4CCNC(=O)C4)cc3Cl)c2)ccn1` [Compound 93, 4-{4-[4-(2-tert-butylpyridin-4-yl)thiophen-2-yl]-3-chlorobenzoyl}piperazin-2-one], for which the IC50 in series [1] (setting [4]) was 0.41 µM. The IC50 at 24 h in series [3] was over 10 µM.

As to `CC(C)(C)c1cc(-c2csc(-c3ccc(C(=O)N4CCCC(N5CCNC5=O)C4)cc3Cl)c2)ccn1` (stereo not shown) [Compound 94, 1-[1-{4-[4-(2-tert-butylpyridin-4-yl)thiophen-2-yl]-3-chlorobenzoyl}piperidin-3-yl]imidazolidin-2-one], the 50% inhibitory concentration (IC50) in series [1] (setting [4]) worked out at 0.52 µM. Besides, in series [3], the IC50 at 24 h is over 10 µM.

Turning to `CC1(N)CCCN(C(=O)c2ccc(-c3cc(-c4ccnc(C(C)(C)C)c4)cs3)c(Cl)c2)C1` (stereo not shown) [Compound 95, 1-{4-[4-(2-tert-butylpyridin-4-yl)thiophen-2-yl]-3-chlorobenzoyl}-3-methylpiperidin-3-amine], the IC50 in series [1] (setting [4]) is 0.42 µM. The IC50 at 24 h in series [3] is over 10 µM.

Take `CC(C)(C)c1cc(-c2csc(-c3ccc(C(=O)N4CC[C@@H](N)C4)cc3Cl)c2)ccn1` [Compound 96a, (3R)-1-{4-[4-(2-tert-butylpyridin-4-yl)thiophen-2-yl]-3-chlorobenzoyl}pyrrolidin-3-amine]: the IC50 in series [1] (setting [4]) worked out at 1.4 µM. In series [3], the IC50 at 24 h is over 10 µM.

With `CC(C)(C)c1cc(-c2csc(-c3ccc(C(=O)N4CC[C@H](N)C4)cc3Cl)c2)ccn1` [Compound 96b, (3S)-1-{4-[4-(2-tert-butylpyridin-4-yl)thiophen-2-yl]-3-chlorobenzoyl}pyrrolidin-3-amine], the 50% inhibitory concentration (IC50) in series [1] (setting [4]) was determined as 0.6 µM. Moreover, the half-inhibitory concentration (IC50) at 24 h in series [3] was over 10 µM.

Consider `CC(C)(C)c1cc(-c2csc(-c3ccc(C(=O)N4CCCc5ncccc54)cc3Cl)c2)ccn1` [Compound 97, 1-{4-[4-(2-tert-butylpyridin-4-yl)thiophen-2-yl]-3-chlorobenzoyl}-1,2,3,4-tetrahydro-1,5-naphthyridine], for which, in series [1] (setting [4]), the IC50 stood at 0.17 µM. In series [3], the concentration for half-maximal inhibition (IC50) at 24 h was over 3 µM.

With `CC(C)(C)c1cc(-c2nc(-c3ccc(C(=O)N4CCC(O)CC4)cc3Cl)c[nH]2)ccn1` [Compound 98, 1-{4-[2-(2-tert-butylpyridin-4-yl)-1H-imidazol-4-yl]-3-chlorobenzoyl}piperidin-4-ol], the IC50 in series [1] (24 h) worked out at 0.99 µM. Further, the IC50 at 24 h in series [3] was over 10 µM.

Turning to `COC1CCCN(C(=O)c2ccc(-c3cc(-c4ccnc(C(C)(C)C)c4)cs3)c(Cl)c2)C1` (stereo not shown) [Compound 99, 2-tert-butyl-4-{5-[2-chloro-4-(3-methoxypiperidine-1-carbonyl)phenyl]thiophen-3-yl}pyridine], in series [1] (24 h), the IC50 stood at 0.051 µM. For the same compound, in series [3], the IC50 at 24 h was over 10 µM.

Take `CC1(O)CCN(C(=O)c2ccc(-c3cc(-c4ccnc(C(C)(C)C)c4)cs3)c(Cl)c2)CC1` [Compound 100, 1-{4-[4-(2-tert-butylpyridin-4-yl)thiophen-2-yl]-3-chlorobenzoyl}-4-methylpiperidin-4-ol]: in series [1] (setting [4]), the IC50 is 0.74 µM. The IC50 at 24 h in series [3] was over 10 µM.

With `CC(C)(C)c1cc(-c2csc(-c3ccc(C(=O)N4CCC[C@](C)(O)C4)cc3Cl)c2)ccn1` [Compound 101a, [4-[4-(2-tert-butyl-4-pyridyl)-2-thienyl]-3-chloro-phenyl]-[(3S)-3-hydroxy-3-methyl-1-piperidyl] methanone hydrochloride], the IC50 in series [1] (setting [4]) turned out to be 0.15 µM. Also, in series [3], the half-maximal inhibitory concentration (IC50) at 24 h was over 10 µM.

`CC(C)(C)c1cc(-c2csc(-c3ccc(C(=O)N4CCC[C@](C)(O)C4)cc3Cl)c2)ccn1` [Compound 101b, (3S)-1-{4-[4-(2-tert-butylpyridin-4-yl)thiophen-2-yl]-3-chlorobenzoyl}-3-methylpiperidin-3-ol]: in series [1] (setting [4]), the IC50 came to 0.025 µM. Besides, the IC50 at 24 h in series [3] is over 10 µM.

As for `CC(C)CCn1nccc1-c1cc(-c2ccc(C(=O)N3CCOCC3)cc2Cl)cs1` [Compound 102, [3-chloro-4-[5-(2-isopentylpyrazol-3-yl)-3-thienyl]phenyl]-morpholino-methanone], in series [1] (setting [4]), the IC50 came to 0.44 µM. Further, the half-inhibitory concentration (IC50) at 24 h in series [3] is over 10 µM.

As for `CC(C)CCn1nccc1-c1cc(-c2ccc(C(=O)N3CCC(F)(F)CC3)cc2Cl)cs1` [Compound 103, [3-chloro-4-[5-(2-isopentylpyrazol-3-yl)-3-thienyl]phenyl]-(4,4-difluoro-1-piperidyl)methanone], the IC50 in series [1] (setting [4]) was found to be 0.69 µM. Further, the IC50 at 24 h in series [3] was over 10 µM.

Regarding `CC(C)CCn1nccc1-c1csc(-c2ccc(C(=O)N3CCCC(O)C3)cc2Cl)c1` (stereo not shown) [Compound 104, [3-chloro-4-[4-(2-isopentylpyrazol-3-yl)-2-thienyl]phenyl]-(3-hydroxy-1-piperidyl)methanone], in series [1] (setting [4]), the IC50 came to 0.13 µM. In addition, the IC50 at 24 h in series [3] is over 10 µM.

As a reminder, the IC50 is the concentration at which inhibition is half-maximal.
